Results published in US11591604B2, “Gene expression in Bacteroides” (Massachusetts Institute of Technology, priority 2015, dated 2023).

What follows are substances tested on NanoLuc (assay: NanoLuc luciferase reporter expression from constitutive promoters and RBSs integrated with pNBU2). Conditions: RBS combined with promoter PBT1311, NanoLuc reporter, three biological replicates.
Type: cell-based, B. thetaiotaomicron
From the text: FIGS. 1A-1G. Genetic parts to control expression in B. thetaiotaomicron. (FIG. 1A) The ranges of gene expression are shown for the different gene regulation systems provided herein. (FIG. 1B) IntN2 catalyzes stable integration of pNBU2-based expression constructs into one of two attBT2 sites in the B. thetaiotaomicron genome. The two attBT2 sites (attBT2-1 at nucleotide (nt) 6,217,227 and attBT2-2 at nt 6,138,320) are in the 3′ ends of tRNA^Ser genes (BT_t71 and BT_t70, respectively). (FIG. 1C) Constitutive promoters and ribosome binding sites for the construction of gene expression libraries. The putative −33 and −7 regions of the PBT1311 promoter, the Shine-Delgarno sequence, and the start codon are indicated by black boxes. Numbers below the black boxes represent nucleotide locations relative the PBT1311 transcription start site. The 26 nt sequences introduced in the PAM promoters are shown (see also FIGS. 6A-6B). Numbers at the edges of the boxes indicate the PBT1311 nucleotides replaced or the insertion site within the promoter. The location of residues randomized in the rpiL* RBS library are indicated with gray arrows (for library A: nt −14, −13, −12; for library B: nt −21, −18, −15; and for library C: nt −17, −16, −11; nt numbering is relative to the translation start site). (FIG. 1D) Activity was measured for a set of constitutive promoters and their cognate RBSs. Furthermore, a set of constitutive promoters (PBT1311, PAM1, PAM2, PAM3, PAM4) was combined with RBSs of varying strengths. Gene expression was measured using a luciferase reporter (NanoLuc). (FIG. 1E) Three large RBS libraries were constructed and combined with promoter PBT1311 to span 10^3-fold in gene expression. For reference, the parent rpiL* RBS is indicated with a black arrow. For D and E, error bars represent the standard deviation of three independent biological replicates made on separate days. (FIG. 1F) The strength of each RBS was compared to the predicted free energy of folding for the mRNA (ΔGfold,). (FIG. 1G) Strong (SEQ ID NO: 210) and weak (SEQ ID NO: 211) consensus sequences for the rpiL* −21 to −11 RBS region targeted by mutagenesis (residue locations are stated relative to the translation start site) are provided. Frequency logos were generated for the 11 strongest and 11 weakest RBSs by comparing the frequency of each nucleotide at each position in that group with the frequency of that nucleotide in that position in the full library. Position −20 and −19 were not randomized and are thus are not shown in the frequency logos.
All genetic parts in this study were characterized using the integration vector pNBU2 to ensure genetic stability of the constructs (FIG. 1B). The pNBU2 plasmid encodes the intN2 tyrosine integrase, which mediates sequence-specific recombination between the attN site of pNBU2 and one of two attBT sites located in the 3′ ends of the two tRNA^Ser genes, BT_t70 and BT_t71, on the B. thetaiotaomicron chromosome (FIG. 1B). Insertion of the pNBU2 plasmid inactivates the tRNA^Ser gene, and simultaneous insertion into both BT_t70 and BT_t71 is unlikely due to the essentiality of tRNA^Ser. pNBU2-based vectors have been used for single-copy complementation in B. thetaiotaomicron in in vitro studies (Koropatkin N M et al. Nat. Rev. Microbiol. 10:323-35, 2012) and in vivo mouse models (Martens E C et al. Cell Host Microbe 4:447-57, 2008).
B. thetaiotaomicron genetic parts were characterized with NanoLuc luciferase (Hall M P et al. ACS Chem. Biol. 7:1848-1857, 2012), which is a small (19 kDa) modified shrimp luciferase. Efforts to use members of the green fluorescent protein family and a FMN-based fluorescent reporter were not successful. NanoLuc oxidizes the exogenously-added substrate furimazine to produce glow-type bioluminescence (Emax=460 nm) with a signal half-life of 2 hr. […]

Substance	Average Luminescence (RLU/CFU)
B25: RBS, SEQ ID NO: 63 (DNA TCCCGCATTTTAAAATAAAATAAATGATTTAGTTAATTAAACGAAT; chemistry not fully specified)	0.01415
B26: RBS, SEQ ID NO: 68 (DNA TCCCGCATTTTAAAATAAAATAAATTATTTAGTTAATTAAACGAAT; chemistry not fully specified)	0.01271
B27: RBS, SEQ ID NO: 74 (DNA TCCCGCATTTTAAAATAAAATAAATGATATAGTTAATTAAACGAAT; chemistry not fully specified)	0.009815
B28: RBS, SEQ ID NO: 77 (DNA TCCCGCATTTTAAAATAAAATAAATTATGTAGTTAATTAAACGAAT; chemistry not fully specified)	0.009593
B29: RBS, SEQ ID NO: 80 (DNA TCCCGCATTTTAAAATAAAATAAATTATATAGTTAATTAAACGAAT; chemistry not fully specified)	0.009478
B30: RBS, SEQ ID NO: 82 (DNA TCCCGCATTTTAAAATAAAATAAATGATGTATTTAATTAAACGAAT; chemistry not fully specified)	0.009276
B31: RBS, SEQ ID NO: 85 (DNA TCCCGCATTTTAAAATAAAATAAATGATCTAGTTAATTAAACGAAT; chemistry not fully specified)	0.008534
B32: RBS, SEQ ID NO: 92 (DNA TCCCGCATTTTAAAATAAAATAAATGATGTAGTTAATTAAACGAAT; chemistry not fully specified)	0.007096
B33: RBS, SEQ ID NO: 97 (DNA TCCCGCATTTTAAAATAAAATAAATCATGTATTTAATTAAACGAAT; chemistry not fully specified)	0.006272
B34: RBS, SEQ ID NO: 98 (DNA TCCCGCATTTTAAAATAAAATAAATCATCTATTTAATTAAACGAAT; chemistry not fully specified)	0.00584
B35: RBS, SEQ ID NO: 105 (DNA TCCCGCATTTTAAAATAAAATAAATCATGTACTTAATTAAACGAAT; chemistry not fully specified)	0.005272
B36: RBS, SEQ ID NO: 112 (DNA TCCCGCATTTTAAAATAAAATAAATCATATAATTAATTAAACGAAT; chemistry not fully specified)	0.004282
B37: RBS, SEQ ID NO: 121 (DNA TCCCGCATTTTAAAATAAAATAAATCATATATTTAATTAAACGAAT; chemistry not fully specified)	0.002567
B38: RBS, SEQ ID NO: 127 (DNA TCCCGCATTTTAAAATAAAATAAATCATTTAGTTAATTAAACGAAT; chemistry not fully specified)	0.001793
B39: RBS, SEQ ID NO: 133 (DNA TCCCGCATTTTAAAATAAAATAAATCATCTAGTTAATTAAACGAAT; chemistry not fully specified)	0.001255
B40: RBS, SEQ ID NO: 134 (DNA TCCCGCATTTTAAAATAAAATAAATCATGTAGTTAATTAAACGAAT; chemistry not fully specified)	0.001108
B41: RBS, SEQ ID NO: 139 (DNA TCCCGCATTTTAAAATAAAATAAATCATATAGTTAATTAAACGAAT; chemistry not fully specified)	0.0001307

Substance	Average Luminescence (RLU/CFU)
C1: RBS, SEQ ID NO: 11 (DNA TCCCGCATTTTAAAATAAAATAAATTATTGATTTAGTTAAACGAAT; chemistry not fully specified)	0.04468
C2: RBS, SEQ ID NO: 13 (DNA TCCCGCATTTTAAAATAAAATAAATTATTACTTTAGTTAAACGAAT; chemistry not fully specified)	0.04331
C3: RBS, SEQ ID NO: 14 (DNA TCCCGCATTTTAAAATAAAATAAATTATTACTTTAATTAAACGAAT; chemistry not fully specified)	0.03677
C4: RBS, SEQ ID NO: 16 (DNA TCCCGCATTTTAAAATAAAATAAATTATTTATTTAGTTAAACGAAT; chemistry not fully specified)	0.03516
C5: RBS, SEQ ID NO: 17 (DNA TCCCGCATTTTAAAATAAAATAAATTATTCATTTAATTAAACGAAT; chemistry not fully specified)	0.03327
C6: RBS, SEQ ID NO: 19 (DNA TCCCGCATTTTAAAATAAAATAAATTATTAATTTAGTTAAACGAAT; chemistry not fully specified)	0.03263
C7: RBS, SEQ ID NO: 20 (DNA TCCCGCATTTTAAAATAAAATAAATTATTAATTTACTTAAACGAAT; chemistry not fully specified)	0.03249
C8: RBS, SEQ ID NO: 21 (DNA TCCCGCATTTTAAAATAAAATAAATTATTTATCGAATTAAACGAAT; chemistry not fully specified)	0.03132
C9: RBS, SEQ ID NO: 23 (DNA TCCCGCATTTTAAAATAAAATAAATTATTGCTTTAATTAAACGAAT; chemistry not fully specified)	0.02988
C10: RBS, SEQ ID NO: 31 (DNA TCCCGCATTTTAAAATAAAATAAATTATTATTTTAATTAAACGAAT; chemistry not fully specified)	0.02583
C11: RBS, SEQ ID NO: 36 (DNA TCCCGCATTTTAAAATAAAATAAATTATTTTTTTACTTAAACGAAT; chemistry not fully specified)	0.02223
C12: RBS, SEQ ID NO: 37 (DNA TCCCGCATTTTAAAATAAAATAAATTATTAGTTTAGTTAAACGAAT; chemistry not fully specified)	0.02151
C13: RBS, SEQ ID NO: 38 (DNA TCCCGCATTTTAAAATAAAATAAATTATTAATTTAATTAAACGAAT; chemistry not fully specified)	0.02149
C14: RBS, SEQ ID NO: 40 (DNA TCCCGCATTTTAAAATAAAATAAATTATTTCTTTACTTAAACGAAT; chemistry not fully specified)	0.02123
C15: RBS, SEQ ID NO: 41 (DNA TCCCGCATTTTAAAATAAAATAAATTATTTCTTTAATTAAACGAAT; chemistry not fully specified)	0.02056
C16: RBS, SEQ ID NO: 43 (DNA TCCCGCATTTTAAAATAAAATAAATTATTAGTTTAATTAAACGAAT; chemistry not fully specified)	0.0203
C17: RBS, SEQ ID NO: 45 (DNA TCCCGCATTTTAAAATAAAATAAATTATTAGTTTATTTAAACGAAT; chemistry not fully specified)	0.01871
